The results in this text go back to patent US10183944B2 (Asana Biosciences, LLC, priority 2011, dated 2019).

Each structure is given as a SMILES string.

Assay [1] has as its target JAK2 (Homo sapiens (Human), UniProt O60674). The experiment in a line: Inhibition of enzymatic JAK2 kinase activity (TR-FRET). The format is biochemical. The note with it: read-out: IC50 JAK. An excerpt: The objective of this assay was to screen compounds in a Time-resolved fluorescence resonance energy transfer (TR-FRET) Enzymatic assay method for their potential to inhibit JAK2 (Janus kinase) activity.
TR-FRET assays are homogeneous proximity assays where Eu-labeled antiphosphotyrosine antibody binds to the phosphorylated substrates labeled with Ulight fluorescence acceptor. Eu can transfer energy to Ulight accepter in the complex and the interaction of two dye-labeled binding partners is detected by the energy transfer between a donor and an acceptor dye, and the subsequent light emission by the acceptor dye. The intensity of the light emission is proportional to the level of Ulight peptide phosphorylation.
Two μL of 10% DMSO in blank, substrate control and positive control wells and 2 μL of test compound in test wells was added. Thirteen μL of assay buffer in blank and substrate control wells and 13 μL of Enzyme buffer mix in positive and test wells was added. The reaction mixture was incubated for 30 minutes at RT on a plate shaker. Ultra Light-pGT substrate (5 μL) [poly Glu-Tyr (4:1) labeled with U Light TM dye, a tyrosine kinase substrate] and ATP mix was added to all wells. The reaction plate was incubated for 60 minutes at RT on a plate shaker. The reaction was stopped by adding 40 mM EDTA (10 μL) in buffer. Ten μL of antibody was added to all the wells. The plate was read in a Wallac® 1420 Multilabel Counter Victor 3 instrument (Ex: 340 nm Em: 615 & 665 nm) The following calculations were made:
F@ 665 Value-Buffer blank
F@ 615 Value-Buffer blank
Ratio of F@665/F@615-Substrate Blank
% Activity=(Test Sample/Positive control)*100%
Inhibition=(100−% Activity)
For orientation: TR-FRET usually uses a lanthanide donor and a delayed reading to cut background.

The target in assay [2] is Syk (356-635 amino acids) catalytic domain (Homo sapiens (Human), UniProt P43405). As to the kind of experiment: Inhibition of enzymatic Syk kinase activity (radiometric). The format is biochemical. The note with it: read-out: IC50 Syk. The procedure, abridged: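 Radiometric filter-binding format: 32P transfer from γ-32P-ATP onto pG4T, scintillation-counted after acid washes of P81 paper. Syk kinase domain (356-635), 0.035–7.5 ng per reaction, was exposed to compound for 30 minutes at room temperature before a 10-minute, 30° C. reaction with ATP (100 μM stock). Inhibition derived from counts with versus without compound.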

Sequence of JAK2 (O60674 808-1132): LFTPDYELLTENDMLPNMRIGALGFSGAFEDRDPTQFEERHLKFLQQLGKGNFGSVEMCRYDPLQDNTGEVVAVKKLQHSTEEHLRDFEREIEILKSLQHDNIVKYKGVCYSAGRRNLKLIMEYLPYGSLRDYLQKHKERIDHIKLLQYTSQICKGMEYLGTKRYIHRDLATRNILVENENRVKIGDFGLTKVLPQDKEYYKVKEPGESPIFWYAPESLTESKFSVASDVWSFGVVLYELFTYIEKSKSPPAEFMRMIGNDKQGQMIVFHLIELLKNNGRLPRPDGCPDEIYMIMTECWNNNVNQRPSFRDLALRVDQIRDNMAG

Regarding `N#CCC1CCN(c2ccc(Nc3nc(-c4ccccc4)nc4cn[nH]c(=O)c34)cn2)CC1` [Example 101, 2-(1-(5-((5-oxo-2-phenyl-5,6-dihydropyrimido[4,5-d]pyridazin-4-yl)amino)pyridin-2-yl)piperidin-4-yl) acetonitrile], the IC50 in assay [1] and in assay [2] was greater than 100 nM each time.

In the case of `NC(=O)CC1CCN(c2ccc(Nc3nc(-c4ccccc4)nc4cn[nH]c(=O)c34)cn2)CC1` [Example 102, 2-(1-(5-((5-oxo-2-phenyl-5,6-dihydropyrimido[4,5-d]pyridazin-4-yl)amino)pyridin-2-yl)piperidin-4-yl) acetamide], the figures for the IC50 in assay [1] and in assay [2] were greater than 100 nM and less than 50 nM, respectively.

For `NC(=O)CC1CCN(c2ccc(Nc3nc(N4CCCCCC4)nc4cn[nH]c(=O)c34)cc2)CC1` [Example 105, 2-(1-(4-((2-(azepan-1-yl)-5-oxo-5,6-dihydropyrimido[4,5-d]pyridazin-4-yl)amino)phenyl)piperidin-4-yl)acetamide], the IC50 in assay [1] and in assay [2] was less than 10 nM each time.

For `O=C(O)CN1CCN(CCOc2ccc(Nc3nc(N4CCCCCC4)nc4cn[nH]c(=O)c34)cc2)CC1` [Example 106, 2-(4-(2-(4-((2-(azepan-1-yl)-5-oxo-5,6-dihydropyrimido[4,5-d]pyridazin-4-yl)amino)phenoxy)ethyl)piperazin-1-yl) acetic acid], the IC50 in assay [1] and in assay [2] was less than 50 nM each time.

As to `O=C(CC1CCN(c2ccc(Nc3nc(N4CCCCCC4)nc4cn[nH]c(=O)c34)cc2)CC1)NCCO` [Example 109, 2-(1-(4-((2-(azepan-1-yl)-5-oxo-5,6-dihydropyrimido[4,5-d]pyridazin-4-yl)amino)phenyl)piperidin-4-yl)-N-(2-hydroxyethyl)acetamide], the half-maximal inhibitory concentration (IC50) in assay [1] and in assay [2] was less than 10 nM throughout.

As to `O=c1[nH]ncc2nc(N3CCCCCC3)nc(Nc3ccc(OC[C@@H]4CO[C@@H](CO)CO4)cc3)c12` [Example 110, 2-(azepan-1-yl)-4-((4-(((2S,5S)-5-(hydroxymethyl)-1,4-dioxan-2-yl)methoxy)phenyl)amino)pyrimido[4,5-d]pyridazin-5(6H)-one], the figures for the IC50 in assay [1] and in assay [2] were less than 50 nM and less than 10 nM, respectively.

For the molecule `N#CCC1CCN(c2ccc(Nc3nc(N4CCCCCC4)nc4cn[nH]c(=O)c34)cc2)CC1` [Example 113, 2-(1-(4-((2-(azepan-1-yl)-5-oxo-5,6-dihydropyrimido[4,5-d]pyridazin-4-yl)amino)phenyl)piperidin-4-yl)acetonitrile], the IC50 – broadly, the midpoint of a concentration-inhibition curve – in assay [1] is less than 10 nM; in assay [2], greater than 100 nM.

On to `N#CCC1CCN(c2ccc(Nc3nc(N4CCC(CC#N)CC4)nc4cn[nH]c(=O)c34)cn2)CC1` [Example 114, 2-(1-(5-((2-(4-(cyanomethyl)piperidin-1-yl)-5-oxo-5,6-dihydropyrimido[4,5-d]pyridazin-4-yl)amino)pyridin-2-yl)piperidin-4-yl)acetonitrile], for which the half-inhibitory concentration (IC50) in assay [1] is less than 50 nM; in assay [2], less than 10 nM.

On to `CC(C)(O)C(=O)N1CCN(CCOc2ccc(Nc3nc(N4CCCCCC4)nc4cn[nH]c(=O)c34)cc2)CC1` [Example 115, 2-(azepan-1-yl)-4-((4-(2-(4-(2-hydroxy-2-methylpropanoyl)piperazin-1-yl)ethoxy)phenyl)amino)pyrimido[4,5-d]pyridazin-5(6H)-one], for which the IC50 in assay [1] and in assay [2] was less than 50 nM throughout.

As to `O=C(O)[C@H]1CO[C@H](COc2ccc(Nc3nc(N4CCCCCC4)nc4cn[nH]c(=O)c34)cc2)CO1` [Example 124, (2R,5S)-5-((4-((2-(azepan-1-yl)-5-oxo-5,6-dihydropyrimido[4,5-d]pyridazin-4-yl)amino)phenoxy)methyl)-1,4-dioxane-2-carboxylic acid], the IC50 in assay [1] and in assay [2] was less than 10 nM in each case.

On to `O=C(O)CC1CCN(CCCOc2ccc(Nc3nc(N4CCCCCC4)nc4cn[nH]c(=O)c34)cc2)CC1` [Example 126, 2-(1-(3-(4-((2-(azepan-1-yl)-5-oxo-5,6-dihydropyrimido[4,5-d]pyridazin-4-yl)amino)phenoxy)propyl)piperidin-4-yl) acetic acid], for which the IC50 in assay [1] was less than 50 nM; in assay [2] it was less than 100 nM.

With `O=C(O)C[C@H]1CC[C@H](c2ccc(Nc3nc(N4CCCCCC4)nc4cn[nH]c(=O)c34)cc2)CC1` [Example 129, 2-((1R,4R)-4-(4-((2-(azepan-1-yl)-5-oxo-5,6-dihydropyrimido[4,5-d]pyridazin-4-yl)amino)phenyl)cyclohexyl)acetic acid], the IC50 in assay [1] and in assay [2] was less than 10 nM in each case.

In the case of `O=C(O)CCC1CCN(c2ccc(Nc3nc(N4CCCCCC4)nc4cn[nH]c(=O)c34)cc2)CC1` [Example 130, 3-(1-(4-((2-(azepan-1-yl)-5-oxo-5,6-dihydropyrimido[4,5-d]pyridazin-4-yl)amino)phenyl)piperidin-4-yl)propanoic acid], the half-maximal inhibitory concentration (IC50) in assay [1] and in assay [2] was less than 10 nM each time.

Take `O=C(O)C1CC12CCN(c1ccc(Nc3nc(N4CCCCCC4)nc4cn[nH]c(=O)c34)cn1)CC2` (stereo not shown) [Example 134]: the results for the half-inhibitory concentration (IC50) in assay [1] and in assay [2] were less than 10 nM and less than 50 nM, respectively.

Turning to `O=C(O)C1CC12CCN(c1ccc(Nc3nc(N4CCCCCC4)nc4cn[nH]c(=O)c34)cc1F)CC2` (stereo not shown) [Example 135, 6-(4-((2-(azepan-1-yl)-5-oxo-5,6-dihydropyrimido[4,5-d]pyridazin-4-yl)amino)-2-fluorophenyl)-6-azaspiro[2.5]octane-1-carboxylic acid], the IC50 in assay [1] and in assay [2] was less than 10 nM in each case.

As to `O=c1[nH]ncc2nc(N3CCCCCC3)nc(Nc3ccc(OCCCN4CCNCC4)cc3)c12` [Example 136, 2-(azepan-1-yl)-4-((4-(3-(piperazin-1-yl)propoxy)phenyl)amino)pyrimido[4,5-d]pyridazin-5(6H)-one], the IC50 in assay [1] and in assay [2] was less than 50 nM in each case.

For the molecule `CC(C)(O)C1CCN(c2ccc(Nc3nc(N4CCCCCC4)nc4cn[nH]c(=O)c34)cc2)CC1` [Example 139, 2-(azepan-1-yl)-4-((4-(4-(2-hydroxypropan-2-yl)piperidin-1-yl)phenyl)amino)pyrimido[4,5-d]pyridazin-5(6H)-one], the figures for the IC50 in assay [1] and in assay [2] were less than 10 nM and less than 50 nM, respectively.

With `CC(C)(C(=O)O)N1CCN(c2ccc(Nc3nc(N4CCCCCC4)nc4cn[nH]c(=O)c34)cc2)CC1` [Example 140, 2-(4-(4-((2-(azepan-1-yl)-5-oxo-5,6-dihydropyrimido[4,5-d]pyridazin-4-yl)amino)phenyl)piperazin-1-yl)-2-methylpropanoic acid], the IC50 in assay [1] and in assay [2] was less than 10 nM in each case.

In the case of `O=C(O)C1CC12CCN(c1ccc(Nc3nc(N4CCCCCCC4)nc4cn[nH]c(=O)c34)cc1)CC2` (stereo not shown) [Example 141, 6-(4-((2-(azocan-1-yl)-5-oxo-5,6-dihydropyrimido[4,5-d]pyridazin-4-yl)amino)phenyl)-6-azaspiro[2.5]octane-1-carboxylic acid], the IC50 in assay [1] is less than 10 nM; in assay [2] it was less than 50 nM.

Turning to `CC(C)(C(=O)O)C1CCN(c2ccc(Nc3nc(N4CCCCCC4)nc4cn[nH]c(=O)c34)cc2)CC1` [Example 142, 2-(1-(4-((2-(azepan-1-yl)-5-oxo-5,6-dihydropyrimido[4,5-d]pyridazin-4-yl)amino)phenyl)piperidin-4-yl)-2-methylpropanoic acid], the IC50 was less than 10 nM in assay [1] and less than 50 nM in assay [2].

On to `CC(C)(C(=O)O)C1CCN(c2ccc(Nc3nc(-c4ccccc4)nc4cn[nH]c(=O)c34)cc2)CC1` [Example 143, 2-methyl-2-(1-(4-((5-oxo-2-phenyl-5,6-dihydropyrimido[4,5-d]pyridazin-4-yl)amino)phenyl)piperidin-4-yl)propanoic acid], for which the IC50 in assay [1] was greater than 100 nM; in assay [2] it was less than 50 nM.

`O=C(O)CN1CCN(c2ccc(Nc3nc(N4CCCCCC4)nc4cn[nH]c(=O)c34)cn2)CC1` [Example 144, 2-(4-(5-((2-(azepan-1-yl)-5-oxo-5,6-dihydropyrimido[4,5-d]pyridazin-4-yl)amino)pyridin-2-yl)piperazin-1-yl)acetic acid]: the half-inhibitory concentration (IC50) in assay [1] and in assay [2] was less than 100 nM throughout.

`N#CCC1CCN(c2nc(Nc3ccc(N4CCC5(CC4)CC5C(=O)O)nc3)c3c(=O)[nH]ncc3n2)CC1` (stereo not shown) [Example 148, 6-(5-((2-(4-(cyanomethyl)piperidin-1-yl)-5-oxo-5,6-dihydropyrimido[4,5-d]pyridazin-4-yl)amino)pyridin-2-yl)-6-azaspiro[2.5]octane-1-carboxylic acid]: the IC50 in assay [1] and in assay [2] was less than 50 nM in each case.
